Laboratory results reported in PMC6646405, “A quantitative, high-throughput method identifies protein–glycan interactions via mass spectrometry” (Communications Biology, 2019).

Target: T1, human neuraminidase 2 (NEU2) (Homo sapiens, UniProt Q9Y3R4)
T1 construct: made in house
Test: Time-resolved CUPRA enzyme kinetics, NEU2
Format: biochemical
Conditions: for fraction of OSmod substrate remaining (Fig2d time course): 200 mM aqueous ammonium acetate, pH 7, 25 °C
Method: To apply CUPRA in this capacity, two or more substrates of interest are introduced, as their corresponding OS^mod, to a solution containing the desired CAZyme. Changes in substrate concentrations, as well as those of the corresponding enzyme products, are determined from the relative abundances of OS^mod-bound ^UniPproxy measured by time-resolved ESI-MS. Because of the manner in which the substrate and product concentrations are measured, the assay is insensitive to differences in their ESI-MS response factors and, consequently, independent of the nature of the chemical modification catalyzed by the enzyme. As a result, time-resolved CUPRA eliminates the need for calibration curves or internal standards, which are generally required with ESI-MS-based enzyme kinetics assays.
Two glycosyl hydrolases, human neuraminidase 2 (NEU2) and 3 (NEU3), which preferentially cleave α2-3-linked Neu5Ac residues, were used to illustrate the ease with which time-resolved CUPRA can establish substrate specificities. We incubated libraries of the Neu5Ac-containing OS^mod with NEU2 (Fig. 2d) or NEU3 (Fig. 2e) and monitored their conversion to the corresponding desialylated OS^mod products at pH 7 and 25 °C. […] All OS^mod containing terminal α2-3-linked Neu5Ac were substrates of NEU3, with initial rates that are 10–50% that of HMO03. […] Substrates containing branching after the α2-3-linkage were poor substrates for both enzymes. […] We note, however, that previous reports have examined NEU2 and NEU3 activity under more acidic solution conditions. Furthermore, the nature of the substrate aglycone may influence the activity of human neuraminidases.
The time-resolved CUPRA measurements were performed by manually mixing aliquots of stock solutions of NEU2 or NEU3 (final concentration 2 µM), ^UniPproxy (5 µM), substrates (Si, 5 µM each) and CUPRA linker (5 µM), all in 200 mM aqueous ammonium acetate at pH 7 and 25 °C. ESI mass spectra were collected continuously at the rate of 30 scans min^−1 starting at 3 min after mixing. The adduct distributions measured for the ^UniPproxy – CUPRA linker complex ions were used to apply SWARM. The time-dependent fractional abundance of a given substrate (FS,i) (Eq. 12), which was used to represent reaction progress, was calculated from the total Ab of ^UniPproxy bound to Si and corresponding product (Pi), corrected for Si consumed prior to data acquisition.12 FS,i=Ab^UniPproxySi/Ab^UniPproxySi+Ab^UniPproxyPi

T1 sequence (Q9Y3R4 whole entry): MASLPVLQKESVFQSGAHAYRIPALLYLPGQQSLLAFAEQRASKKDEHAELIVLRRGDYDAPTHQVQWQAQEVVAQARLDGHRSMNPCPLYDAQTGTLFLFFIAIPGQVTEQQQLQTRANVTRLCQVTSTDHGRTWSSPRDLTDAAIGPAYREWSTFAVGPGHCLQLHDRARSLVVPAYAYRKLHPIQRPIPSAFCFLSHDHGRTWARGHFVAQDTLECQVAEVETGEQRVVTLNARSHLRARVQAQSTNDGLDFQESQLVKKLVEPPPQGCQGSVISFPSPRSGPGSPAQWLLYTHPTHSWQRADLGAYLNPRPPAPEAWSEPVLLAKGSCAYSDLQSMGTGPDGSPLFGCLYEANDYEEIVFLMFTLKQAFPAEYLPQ

CC(=O)N[C@H]1[C@H](O[C@@H]2[C@H](O[C@]3(C(=O)O)C[C@H](O)[C@@H](NC(C)=O)[C@H]([C@H](O)[C@@H](CO)O[C@]4(C(=O)O)C[C@H](O)[C@@H](NC(C)=O)[C@H]([C@H](O)[C@H](O)CO)O4)O3)[C@@H](O)[C@H](O[C@H]3[C@H](O)[C@@H](O)[C@H](N(CCOCCOCCNC(=O)[C@H](Cc4ccccc4)NC(=O)[C@H](Cc4ccccc4)NC(=O)CCCC(=O)NCCc4ccc(S(N)(=O)=O)cc4)C(C)=O)O[C@@H]3CO)O[C@@H]2CO)O[C@H](CO)[C@H](O)[C@@H]1O [GA10, GalNAcβ1-4(Neu5Acα2-8 Neu5Acα2-3)Galβ1-4Glc-CL]
relative abundance of OSmod substrate (Fig2d time course) (time 0 min): 0.903 | relative abundance of OSmod substrate (Fig2d time course) (time 1 min): 0.9038 | relative abundance of OSmod substrate (Fig2d time course) (time 2 min): 0.8996 | relative abundance of OSmod substrate (Fig2d time course) (time 3 min): 0.8888 | relative abundance of OSmod substrate (Fig2d time course) (time 4 min): 0.9044 | relative abundance of OSmod substrate (Fig2d time course) (time 7 min): 0.9102 | relative abundance of OSmod substrate (Fig2d time course) (time 8 min): 0.9068 | relative abundance of OSmod substrate (Fig2d time course) (time 9 min): 0.9088 | relative abundance of OSmod substrate (Fig2d time course) (time 10 min): 0.9065 | relative abundance of OSmod substrate (Fig2d time course) (time 11 min): 0.9097 | relative abundance of OSmod substrate (Fig2d time course) (time 12 min): 0.9035 | relative abundance of OSmod substrate (Fig2d time course) (time 13 min): 0.9029 | relative abundance of OSmod substrate (Fig2d time course) (time 14 min): 0.9064 | relative abundance of OSmod substrate (Fig2d time course) (time 15 min): 0.8954 | relative abundance of OSmod substrate (Fig2d time course) (time 16 min): 0.9063 | relative abundance of OSmod substrate (Fig2d time course) (time 17 min): 0.9123 | relative abundance of OSmod substrate (Fig2d time course) (time 18 min): 0.9135 | relative abundance of OSmod substrate (Fig2d time course) (time 19 min): 0.9061 | relative abundance of OSmod substrate (Fig2d time course) (time 20 min): 0.9106 | relative abundance of OSmod substrate (Fig2d time course) (time 21 min): 0.9179 | relative abundance of OSmod substrate (Fig2d time course) (time 22 min): 0.9134 | relative abundance of OSmod substrate (Fig2d time course) (time 23 min): 0.9095 | relative abundance of OSmod substrate (Fig2d time course) (time 24 min): 0.9035 | relative abundance of OSmod substrate (Fig2d time course) (time 25 min): 0.9132 | relative abundance of OSmod substrate (Fig2d time course) (time 26 min): 0.907 | relative abundance of OSmod substrate (Fig2d time course) (time 27 min): 0.9132 | relative abundance of OSmod substrate (Fig2d time course) (time 28 min): 0.9116 | relative abundance of OSmod substrate (Fig2d time course) (time 29 min): 0.9094 | relative abundance of OSmod substrate (Fig2d time course) (time 30 min): 0.9084 | relative abundance of OSmod substrate (Fig2d time course) (time 31 min): 0.9073 | relative abundance of OSmod substrate (Fig2d time course) (time 32 min): 0.915 | relative abundance of OSmod substrate (Fig2d time course) (time 33 min): 0.9164 | relative abundance of OSmod substrate (Fig2d time course) (time 34 min): 0.9136 | relative abundance of OSmod substrate (Fig2d time course) (time 35 min): 0.9113 | relative abundance of OSmod substrate (Fig2d time course) (time 36 min): 0.9057 | relative abundance of OSmod substrate (Fig2d time course) (time 37 min): 0.9031 | relative abundance of OSmod substrate (Fig2d time course) (time 38 min): 0.9043 | relative abundance of OSmod substrate (Fig2d time course) (time 39 min): 0.895 | relative abundance of OSmod substrate (Fig2d time course) (time 40 min): 0.8976 | relative abundance of OSmod substrate (Fig2d time course) (time 41 min): 0.8827 | relative abundance of OSmod substrate (Fig2d time course) (time 42 min): 0.9129 | relative abundance of OSmod substrate (Fig2d time course) (time 43 min): 0.905 | relative abundance of OSmod substrate (Fig2d time course) (time 44 min): 0.9072 | relative abundance of OSmod substrate (Fig2d time course) (time 45 min): 0.9125 | relative abundance of OSmod substrate (Fig2d time course) (time 46 min): 0.9034 | relative abundance of OSmod substrate (Fig2d time course) (time 47 min): 0.9131 | relative abundance of OSmod substrate (Fig2d time course) (time 48 min): 0.9147 | relative abundance of OSmod substrate (Fig2d time course) (time 49 min): 0.9115 | relative abundance of OSmod substrate (Fig2d time course) (time 50 min): 0.9161 | relative abundance of OSmod substrate (Fig2d time course) (time 51 min): 0.9162 | relative abundance of OSmod substrate (Fig2d time course) (time 52 min): 0.9166 | relative abundance of OSmod substrate (Fig2d time course) (time 53 min): 0.9066 | relative abundance of OSmod substrate (Fig2d time course) (time 54 min): 0.9094 | relative abundance of OSmod substrate (Fig2d time course) (time 55 min): 0.9043 | relative abundance of OSmod substrate (Fig2d time course) (time 56 min): 0.9097 | relative abundance of OSmod substrate (Fig2d time course) (time 57 min): 0.9071 | relative abundance of OSmod substrate (Fig2d time course) (time 58 min): 0.9137 | relative abundance of OSmod substrate (Fig2d time course) (time 59 min): 0.9089 | relative abundance of OSmod substrate (Fig2d time course) (time 60 min): 0.9084 | relative abundance of OSmod substrate (Fig2d time course) (time 61 min): 0.9152 | relative abundance of OSmod substrate (Fig2d time course) (time 62 min): 0.9099 | relative abundance of OSmod substrate (Fig2d time course) (time 63 min): 0.9041 | relative abundance of OSmod substrate (Fig2d time course) (time 64 min): 0.9 | relative abundance of OSmod substrate (Fig2d time course) (time 65 min): 0.9101 | relative abundance of OSmod substrate (Fig2d time course) (time 66 min): 0.9104 | relative abundance of OSmod substrate (Fig2d time course) (time 67 min): 0.9077 | relative abundance of OSmod substrate (Fig2d time course) (time 68 min): 0.9072 | relative abundance of OSmod substrate (Fig2d time course) (time 69 min): 0.9129 | relative abundance of OSmod substrate (Fig2d time course) (time 70 min): 0.9057 | relative abundance of OSmod substrate (Fig2d time course) (time 71 min): 0.9057 | relative abundance of OSmod substrate (Fig2d time course) (time 72 min): 0.9132 | relative abundance of OSmod substrate (Fig2d time course) (time 73 min): 0.9108 | relative abundance of OSmod substrate (Fig2d time course) (time 74 min): 0.9071 | relative abundance of OSmod substrate (Fig2d time course) (time 75 min): 0.9161 | relative abundance of OSmod substrate (Fig2d time course) (time 76 min): 0.9095 | relative abundance of OSmod substrate (Fig2d time course) (time 77 min): 0.9151 | relative abundance of OSmod substrate (Fig2d time course) (time 78 min): 0.9122 | relative abundance of OSmod substrate (Fig2d time course) (time 79 min): 0.9076 | relative abundance of OSmod substrate (Fig2d time course) (time 80 min): 0.9134 | relative abundance of OSmod substrate (Fig2d time course) (time 81 min): 0.9135 | relative abundance of OSmod substrate (Fig2d time course) (time 82 min): 0.9162 | relative abundance of OSmod substrate (Fig2d time course) (time 83 min): 0.9125 | relative abundance of OSmod substrate (Fig2d time course) (time 84 min): 0.9098 | relative abundance of OSmod substrate (Fig2d time course) (time 97 min): 0.9111 | relative abundance of OSmod substrate (Fig2d time course) (time 98 min): 0.9062 | relative abundance of OSmod substrate (Fig2d time course) (time 99 min): 0.9109 | relative abundance of OSmod substrate (Fig2d time course) (time 100 min): 0.915 | relative abundance of OSmod substrate (Fig2d time course) (time 101 min): 0.9087 | relative abundance of OSmod substrate (Fig2d time course) (time 102 min): 0.916 | relative abundance of OSmod substrate (Fig2d time course) (time 103 min): 0.9129 | relative abundance of OSmod substrate (Fig2d time course) (time 104 min): 0.9139 | relative abundance of OSmod substrate (Fig2d time course) (time 105 min): 0.9109 | relative abundance of OSmod substrate (Fig2d time course) (time 106 min): 0.908 | relative abundance of OSmod substrate (Fig2d time course) (time 107 min): 0.9138 | relative abundance of OSmod substrate (Fig2d time course) (time 108 min): 0.911 | relative abundance of OSmod substrate (Fig2d time course) (time 109 min): 0.9085 | relative abundance of OSmod substrate (Fig2d time course) (time 110 min): 0.8819 | relative abundance of OSmod substrate (Fig2d time course) (time 111 min): 0.9092 | relative abundance of OSmod substrate (Fig2d time course) (time 112 min): 0.9111 | relative abundance of OSmod substrate (Fig2d time course) (time 113 min): 0.9127 | fraction of OSmod substrate remaining (Fig2d time course) (time 114 min, time-resolved CUPRA): 0.9126 | fraction of OSmod substrate remaining (Fig2d time course) (time 115 min, time-resolved CUPRA): 0.9042 | fraction of OSmod substrate remaining (Fig2d time course) (time 116 min, time-resolved CUPRA): 0.909 | fraction of OSmod substrate remaining (Fig2d time course) (time 117 min, time-resolved CUPRA): 0.9097 | fraction of OSmod substrate remaining (Fig2d time course) (time 118 min, time-resolved CUPRA): 0.9085 | fraction of OSmod substrate remaining (Fig2d time course) (time 119 min, time-resolved CUPRA): 0.9043 | fraction of OSmod substrate remaining (Fig2d time course) (time 120 min, time-resolved CUPRA): 0.904 | fraction of OSmod substrate remaining (Fig2d time course) (time 121 min, time-resolved CUPRA): 0.904 | fraction of OSmod substrate remaining (Fig2d time course) (time 122 min, time-resolved CUPRA): 0.904 | fraction of OSmod substrate remaining (Fig2d time course) (time 123 min, time-resolved CUPRA): 0.904 | fraction of OSmod substrate remaining (Fig2d time course) (time 124 min, time-resolved CUPRA): 0.904 | Relative activity NEU2 (time-resolved CUPRA, 200 mM aqueous ammonium acetate pH 7, 25 °C, relative to HMO03): 0.000
